Literature values as cited in patent US20140294790A1, “METHOD OF PREVENTING, CONTROLLING AND AMELIORATING URINARY TRACT INFECTIONS AND SUPPORTING DIGESTIVE HEALTH BY USING A SYNERGISTIC CRANBERRY DERIVATIVE, A D-MANNOSE COMPOSITION AND A PROPRIETARY PROBIOTIC BLEND” (U.S. NUTRACEUTICALS, LLC d/b/a Valensa International, priority 2008, published 2014).

Measured: antibacterial activity

acidophilin
demonstrated activity: Bacillus subtilis | Clostridium perfringens | Escherichia coli | Salmonella enteritidis | Salmonella typhimurium | Staphylococcus aureus
